Read-outs that look alike come from different tables or passages of the source.
Experiments:
[1] = ABTS radical cation scavenging assay; details: for ABTS Assay %: at 100 µM
Description: ABTS (2,2′-azinobis-3-ethylbenzothiazoline-6-sulfonate) assay
The radical scavenging capacity of antioxidants for the ABTS radical cation was evaluated following this method: ABTS was prepared by adding 7 mM solution of ABTS at pH 7.4 (5 mM NaH2PO4, 5 mM Na2HPO4, and 154 mM NaCl) with 2.5 mM potassium persulfate. The mixture was stored at room temperature for 16 h in the dark before use and prepared […]. Once diluted with persulfate buffer, the absorbance of the mixture yielded an absorbance value of 0.70 ± 0.05 units at 734 nm. Then, 20 µL of each tested sample was mixed with fresh ABTS solution (180 µL), then the absorbance was measured 6 min after the initial mixing. Ascorbic acid was used as a standard. The capacity of free radical scavenging was expressed as a percentage of the inhibition values. The percentage of inhibition is calculated using the same expression employed in the DPPH assay.

15-lipoxygenase = molecular target: T1, 15-lipoxygenase (Glycine max, UniProt P08170); assay: Anti-inflammatory activity (anti 15-lipoxygenase); type: biochemical; details: at 100 µM
T1 sequence (P08170 1-839): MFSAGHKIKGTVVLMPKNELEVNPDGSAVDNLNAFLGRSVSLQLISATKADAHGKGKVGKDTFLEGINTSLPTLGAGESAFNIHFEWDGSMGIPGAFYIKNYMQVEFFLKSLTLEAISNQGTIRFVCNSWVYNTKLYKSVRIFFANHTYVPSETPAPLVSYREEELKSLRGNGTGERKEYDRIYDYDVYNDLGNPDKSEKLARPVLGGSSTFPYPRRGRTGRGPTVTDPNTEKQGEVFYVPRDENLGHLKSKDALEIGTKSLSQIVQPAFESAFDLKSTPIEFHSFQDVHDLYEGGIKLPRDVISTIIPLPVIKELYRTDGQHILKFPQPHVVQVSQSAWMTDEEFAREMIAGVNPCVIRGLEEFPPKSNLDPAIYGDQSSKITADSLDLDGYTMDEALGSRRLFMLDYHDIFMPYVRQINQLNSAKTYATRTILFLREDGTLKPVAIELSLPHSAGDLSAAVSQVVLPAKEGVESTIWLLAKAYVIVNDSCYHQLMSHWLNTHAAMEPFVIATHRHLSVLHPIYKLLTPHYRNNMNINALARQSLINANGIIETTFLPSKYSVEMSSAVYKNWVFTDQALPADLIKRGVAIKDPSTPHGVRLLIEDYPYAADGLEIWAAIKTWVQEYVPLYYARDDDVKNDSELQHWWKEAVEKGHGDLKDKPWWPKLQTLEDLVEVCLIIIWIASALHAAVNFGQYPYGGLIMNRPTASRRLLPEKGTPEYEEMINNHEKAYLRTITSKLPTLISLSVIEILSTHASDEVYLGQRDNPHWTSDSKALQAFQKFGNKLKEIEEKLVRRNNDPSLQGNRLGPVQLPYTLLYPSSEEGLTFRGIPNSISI

MCF7 cells = assay: Cytotoxic activity, MTT assay, MCF7; type: cell-based, human
Description: Optical density was measured at 540 nm. All tests were established in triplicate.

xanthine oxidase (XOD) [2] = molecular target: T2, xanthine oxidase (XOD) (Homo sapiens, UniProt P47989); assay: biochemical
Description: Anti-xanthine oxidase activity was assayed spectrophotometrically under aerobic conditions. First, 50 µL (50 µg/mL) of samples were added to 60 µL of phosphate buffer (pH 7.5) and 30 µL of xanthine oxidase enzyme solution (0.01 units/mL in phosphate buffer; pH 7.5). After pre-incubation at 25 °C for 15 min, the reaction was initiated by the addition of 60 µL of xanthine substrate solution (prepared in the same buffer). The assay mixture was incubated at 25 °C for 5 min. […] The assay was performed in triplicate. […] Tests were carried out in triplicate.

[3] = molecular target: acetylcholinesterase (AChE) (Homo sapiens, UniProt P22303); assay: biochemical
Description: The enzymatic activity was assessed via a modified colorimetric Ellman′s method. First, 50 µL of Tris-HCl buffer (pH 8), 25µL of a buffer solution of the sample (50 µg/mL), and 25 µL of an acetylcholinesterase (AChE) enzyme solution containing 2.8 U/mL were mixed. A reaction was then initiated via the addition of 125 µL of 3 mM […]. After incubation for 15 min at 25 °C, 25 µL of a solution of iodide acetylthiocholine15 mM was added to a 96-well microplate. […] Inhibition (%) was calculated in the following way: Inhibition (%) = [(A control − A sample)/A control] × 100, where (A sample) is the absorbance of the molecule containing the reaction and (A control) is the absorbance of the reaction control. Tests were carried out in triplicate.

[4] = parameters: method as in PMID 26504472; details: tested at 147.78 µM ref 17; cited from earlier work
[5] = cited from earlier work
[6] = test system: porcine pancreas α-amylase; parameters: method as in doi:10.15436/2377-0619.15.042; details: at 1 mM, different protocols (chromogenic substrate p-nitrophenyl-α-D-maltopentaoside) ref 18; cited from earlier work
12-lipoxygenase = molecular target: 12-lipoxygenase; parameters: method as in PMID 11447334; details: previous report ref 22; cited from earlier work
Aβ1-40-induced dementia = test system: Aβ1-40-induced dementia; parameters: method as in PMID 25274114; details: rats ref 20; cited from earlier work
xanthine oxidase (XOD) [7] = molecular target: T2, xanthine oxidase (XOD); type: biochemical; details: at 100 µM

T2 sequence (P47989 whole entry, species assumed): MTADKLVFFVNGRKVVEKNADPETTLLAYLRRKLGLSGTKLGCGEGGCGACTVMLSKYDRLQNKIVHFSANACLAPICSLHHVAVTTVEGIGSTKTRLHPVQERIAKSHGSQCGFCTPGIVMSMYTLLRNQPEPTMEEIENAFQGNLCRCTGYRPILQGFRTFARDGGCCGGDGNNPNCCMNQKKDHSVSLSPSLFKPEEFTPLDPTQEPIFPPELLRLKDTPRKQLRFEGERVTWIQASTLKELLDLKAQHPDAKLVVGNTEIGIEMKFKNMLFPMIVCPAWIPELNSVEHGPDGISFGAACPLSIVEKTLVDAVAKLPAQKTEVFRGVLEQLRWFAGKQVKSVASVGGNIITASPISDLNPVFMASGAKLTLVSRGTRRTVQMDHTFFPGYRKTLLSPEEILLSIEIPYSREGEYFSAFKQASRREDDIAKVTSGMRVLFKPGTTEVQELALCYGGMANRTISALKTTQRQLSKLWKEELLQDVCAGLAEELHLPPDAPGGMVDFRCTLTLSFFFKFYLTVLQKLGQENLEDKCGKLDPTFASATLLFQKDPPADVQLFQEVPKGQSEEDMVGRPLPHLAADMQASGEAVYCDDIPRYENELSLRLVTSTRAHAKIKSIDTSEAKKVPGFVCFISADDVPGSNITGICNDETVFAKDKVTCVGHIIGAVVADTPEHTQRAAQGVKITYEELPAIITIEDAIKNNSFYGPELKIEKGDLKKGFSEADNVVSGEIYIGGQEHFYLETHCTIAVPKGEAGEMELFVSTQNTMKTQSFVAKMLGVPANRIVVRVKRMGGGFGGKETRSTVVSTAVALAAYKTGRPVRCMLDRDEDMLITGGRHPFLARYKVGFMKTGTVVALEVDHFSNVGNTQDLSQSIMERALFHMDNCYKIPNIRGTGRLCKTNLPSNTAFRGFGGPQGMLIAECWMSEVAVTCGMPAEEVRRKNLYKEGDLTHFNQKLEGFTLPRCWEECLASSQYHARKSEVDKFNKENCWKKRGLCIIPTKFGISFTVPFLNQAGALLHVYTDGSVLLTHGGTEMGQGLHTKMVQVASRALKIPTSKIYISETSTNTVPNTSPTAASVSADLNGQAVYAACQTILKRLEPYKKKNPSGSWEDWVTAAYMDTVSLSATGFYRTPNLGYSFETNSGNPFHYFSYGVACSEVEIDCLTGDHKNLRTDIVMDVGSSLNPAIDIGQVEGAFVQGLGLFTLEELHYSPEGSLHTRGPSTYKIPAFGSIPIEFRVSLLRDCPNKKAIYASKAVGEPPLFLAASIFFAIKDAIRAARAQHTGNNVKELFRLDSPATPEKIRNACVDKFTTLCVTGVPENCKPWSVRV
acetylcholinesterase (AChE), sequence (P22303 32-614, species assumed): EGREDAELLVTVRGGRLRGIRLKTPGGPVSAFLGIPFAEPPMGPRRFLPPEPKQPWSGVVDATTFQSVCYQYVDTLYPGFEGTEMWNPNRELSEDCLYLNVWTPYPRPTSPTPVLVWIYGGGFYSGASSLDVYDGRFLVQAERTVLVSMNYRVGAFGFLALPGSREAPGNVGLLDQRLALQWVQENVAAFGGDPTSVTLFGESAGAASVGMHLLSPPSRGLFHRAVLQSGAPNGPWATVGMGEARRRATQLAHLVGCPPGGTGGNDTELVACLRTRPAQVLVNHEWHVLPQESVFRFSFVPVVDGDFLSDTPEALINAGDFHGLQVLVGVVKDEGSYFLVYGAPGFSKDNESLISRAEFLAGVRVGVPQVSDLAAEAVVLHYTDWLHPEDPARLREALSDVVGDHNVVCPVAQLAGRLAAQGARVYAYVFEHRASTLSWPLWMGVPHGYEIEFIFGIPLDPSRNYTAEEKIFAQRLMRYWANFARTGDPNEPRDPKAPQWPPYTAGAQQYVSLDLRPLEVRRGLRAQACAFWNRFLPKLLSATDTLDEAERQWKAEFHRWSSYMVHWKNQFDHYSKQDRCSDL

Compound | IC50 [1] [µM] | Anti 15-Lipoxygenase % (15-lipoxygenase) | IC50 (MCF7 cells; Homo sapiens, MCF7, 72 h) [µM] | IC50 (xanthine oxidase (XOD) [2]) [µM] | IC50 [3] [µM] | ABTS assay antioxidant activity [4] [%] | IC50 (xanthine oxidase (XOD) [2]; read-out: Anti XOD IC50) [µM] | DPPH assay antioxidant activity ([5]; tested at 147.78 µM ref 17) [%] | porcine pancreas α-amylase inhibition [6] | IC50 ([3]; read-out: Anti ACHE IC50) [µM] | ABTS Assay % [1] [%] | IC50 (MCF7 cells; 72 h) [µM] | IC50 (12-lipoxygenase) [µM] | effect on Aβ1-40-induced dementia (Aβ1-40-induced dementia) | IC50 ([5]; previous study ref 16, read-out: DPPH assay IC50) [µM] | Anti XOD % (xanthine oxidase (XOD) [7]) [%]
O=c1cc(-c2ccccc2)oc2cc(O)cc(O)c12 [Molecule M1, 5,7-dihydroxyflavone] | > 50 | ineffective | 35.9 ± 0.8 | > 100 | > 100 |  |  |  |  |  |  |  |  |  |  | 
COc1ccc(-c2oc3c(CC=C(C)C)c(O[C@@H]4O[C@H](CO)[C@@H](O)[C@H](O)[C@H]4O)cc(O)c3c(=O)c2O[C@@H]2O[C@@H](C)[C@H](O)[C@@H](O)[C@H]2O)cc1 [Molecule M2, Icariin] | 20.1 ± 0.1 |  | > 100 |  | > 100 | 14.6 ± 0.1 | > 100 | 3.8 ± 1.0 |  |  |  |  |  |  |  | 
O=c1cc(-c2ccccc2)oc2ccc(O)cc12 [Molecule M3, 6-hydroxyflavone] | 24 ± 0.1 | ineffective | > 50 |  |  |  | > 100 |  | 4.5 ± 1.1% | > 100 |  |  |  |  |  | 
O=c1cc(-c2ccccc2)oc2cccc(O)c12 [Molecule M4, 5-hydroxyflavone] | > 100 | ineffective | > 50 | > 100 | > 100 |  |  |  | ineffective |  | 16.0 ± 1.5 | > 100 |  |  |  | 
O=c1cc(-c2ccccc2)oc2cc(O)ccc12 [Molecule M5, 7-hydroxyflavone] | > 100 | ineffective | > 50 |  | > 100 |  | > 100 |  | 4.8 ± 3.6% |  | 5.9 ± 0.4 |  |  |  |  | 
O=c1cc(-c2ccccc2)oc2cc(O)c(O)c(O)c12 [Molecule M7, 5,6,7-trihydroxyflavone] | 6.3 ± 0.1 |  | 33.1 ± 1.4 |  | 10.2 ± 3 |  | > 100 |  | 13.2 ± 2.4% |  |  |  | 1 | perfected Aβ1-40-induced dementia in rats | 21.2 | 
O=c1cc(-c2cc(O)cc(O)c2)oc2ccccc12 [Molecule M8, 3′,5′-dihydroxyflavone] | 7.3 ± 0.1 |  | 40.4 ± 0.7 |  |  |  | 2.3 ± 0.1 |  |  | > 100 |  |  |  |  |  | 75.3 ± 1.6
O=c1cc(-c2cccc(O)c2)oc2ccc3ccccc3c12 [Molecule M9, 3′-hydroxy-b-naphthoflavone] | > 100 |  | > 50 |  |  |  | > 100 |  |  | > 100 |  |  |  |  |  | 
O=c1cc(-c2cccc(O)c2)oc2cc(O)ccc12 [Molecule M13, 7,3′-dihydroxyflavone] | 24.5 ± 0.1 |  | 38.5 ± 1.2 |  |  |  | 0.9 ± 0.2 |  |  | > 50 |  |  |  |  |  | 64.2 ± 1.2
COc1cc(-c2cc(=O)c3ccc4c(O)cccc4c3o2)cc(OC)c1OC [Molecule M18, 7-hydroxy-3′,4′,5′-trimethoxy-α-naphthoflavone] | > 50 |  | > 50 |  |  |  | > 100 |  |  | > 100 |  |  |  |  |  | 19.4 ± 1.0

— article PMC10052652 (Molecules, 2023)
